Reference: patent publication US20230243812A1, “[…] TISSUE […] METHODS FOR FORMATION AND USE THEREOF” (President and Fellows of Harvard College, priority 2022, published 2023)
“Also recorded” adds a separate entry of the source.

System: muscular bilayer tissues of biohybrid fish (human stem cell-derived CMs)
Test: Antagonistic contraction and swimming performance of self-paced biohybrid fish treated with stretch-activated channel blockers
Format: cell-based
Details: for Spontaneous frequencies of treated muscular bilayer tissues (frequency-domain analysis of tail-beat angle) / Empirical probability of antagonistic contraction / Moving (swimming) speed: 250 μM streptomycin or 100 μM Gd3+; for Spontaneous frequencies of treated muscular bilayer tissues (frequency-domain analysis of tail-beat angle): power spectral density; for Empirical probability of antagonistic contraction / Moving (swimming) speed: self-paced biohybrid fish, at least 24 hours
Description: The biohybrid fish was placed in Tyrode's solution (1.8 mM CaCl2, 5 mM glucose, 5 mM Hepes, 1 mM MgCl2, 5.4 mM KCl, 135 mM NaCl, and 0.33 mM NaH2PO4 in deionized water, pH 7.4, at 37° C.; Sigma Aldrich, St. Louis, Mo.) in a 22 cm square chamber (VWR International, Radnor, Pa.) on a hotplate (VWR International, Radnor, Pa.) and temperature was maintained at 35° C. to 37° C. The recording of swimming performance of biohybrid fish was filmed with a sCMOS camera (Pco.edge, PCO AG, Germany) coupled with a zoom camera lens (Thorlabs Inc, Newton, N.J.) at 50 frames per second or a single-lens recorder (AXP55 4K Handycam, Sony, Japan) with a 26.8 mm wide-angle lens at 50 frames per second.
To check the effect of mechanical signaling on the antagonistic contraction of muscular bilayer tissues, the biohybrid fish were treated with 250 μM streptomycin or 100 μM Gd^3+ (both from Sigma-Aldrich, St. Louis, Mo.) before recording, streptomycin or Gd^3+ for at least 24 hours.
Digital videos recorded during locomotion experiments were converted to image stacks using a custom-made Matlab program (24) (R2020b, Mathworks, Natick, Mass.). The head, body, and tail positions of the biohybrid fish were tracked using an image processing software (ImageJ, NIH, Bethesda, Md.). The moving distance of the biohybrid fish was measured during each tail-beat cycle, and the swimming speed was calculated by dividing the cumulative distance travelled by the total time. Tail-beat amplitude was measured as the distance between maximum right and left excursions. Tail-beat angle (θ) was calculated as the body angle difference between chord lines of its anterior body and caudal fin at the maximum right and left excursions. Antagonistic contraction was determined by checking whether a muscle contraction induced the subsequent contraction of the opposite side muscle with any delay or not. The empirical probability of antagonistic contraction was determined by dividing the number of antagonistic contractions by the total number of contractions.

[1] = after Gd3+ treatment versus before

Row | SMILES | Spontaneous frequencies of treated muscular bilayer tissues (frequency-domain analysis of tail-beat angle) | Reduction in Re (Reynolds number) [1] [%] | Reduction in Sw (Swimming number) [1] [%] | Empirical probability of antagonistic contraction | Moving (swimming) speed | Empirical probability of antagonistic contraction (listed as Gd3+)
1 | [Gd+3] [Gd^3+, gadolinium] | not harmonic | 80.8 | 40.6 | disrupted antagonistic contraction; also recorded: sensitive; also recorded: significantly decreased | reduced | reduced the chance of antagonistic muscle contraction
2 | [H]/N=C(/N)N[C@H]1[C@H](O)[C@@H](O)[C@H](O[C@@H]2O[C@@H](C)[C@](O)(C=O)[C@H]2O[C@@H]2O[C@@H](CO)[C@H](O)[C@@H](O)[C@@H]2NC)[C@@H](N/C(N)=N\[H])[C@@H]1O [streptomycin] | not harmonic | – | – | disrupted antagonistic contractions; also recorded: sensitive; also recorded: reduced the chance of antagonistic muscle contraction; also recorded: significantly decreased | reduced | –
